Experimental data taken from publication PMC4571936, “Pre-steady-state Kinetic Analysis of a Family D DNA Polymerase from Thermococcus sp. 9°N Reveals Mechanisms for Archaeal Genomic Replication and Maintenance” (The Journal of Biological Chemistry, 2015).

How the values were obtained:
[1] = target: T1, 9°N polD^− (exonuclease-deficient polD mutant H554A); assay: pre-steady-state single-turnover nucleotide incorporation, rapid chemical quench, denaturing gel electrophoresis; format: biochemical, Thermococcus sp. 9°N; settings: apparent Kd; correct pairing, template G with 5'-FAM 50-mer primer; 2 mM MgSO4, ThermoPol buffer pH 8.8 (at 25 °C), 60 °C
T1 construct: gene polC; recombinant purified heterodimer of large and small subunit, ~1:1; with DNA polymerase II small subunit

[2] = target: T1, 9°N polD^− (exonuclease-deficient polD mutant H554A); assay: pre-steady-state single-turnover nucleotide incorporation, rapid chemical quench, capillary electrophoresis; format: biochemical, Thermococcus sp. 9°N; settings: apparent Kd, correct pairing, 2 mM MgSO4, ThermoPol buffer pH 8.8 (at 25 °C), 60 °C

Nc1ccn([C@H]2C[C@H](O)[C@@H](COP(=O)(O)OP(=O)(O)OP(=O)(O)O)O2)c(=O)n1 [dCTP]
Kd [1]: 1700 ± 100 nM

Nc1nc2c(ncn2[C@H]2C[C@H](O)[C@@H](COP(=O)(O)OP(=O)(O)OP(=O)(O)O)O2)c(=O)[nH]1 [dGTP]
Kd ([2]; template C with 5'-FAM 50-mer primer): 900 ± 300 nM

Cc1cn([C@H]2C[C@H](O)[C@@H](COP(=O)(O)OP(=O)(O)OP(=O)(O)O)O2)c(=O)[nH]c1=O [dTTP]
Kd ([2]; A Template-1 with 5'-FAM 50-mer primer): 1600 ± 100 nM

Nc1ncnc2c1ncn2[C@H]1C[C@H](O)[C@@H](COP(=O)(O)OP(=O)(O)OP(=O)(O)O)O1 [dATP]
Kd ([2]; template T with 5'-FAM 50-mer primer): 2500 ± 100 nM
